Measured values taken from US11642369B2, “Method for enhancing expression of antioxidant in epidermis” (J-Network, Inc., priority 2020, dated 2023).

Columns and labels:
Diameter of vesicles = format: physicochemical; conditions: vesicles self-formed in a 2% aqueous solution
Protocol: Sample 62 was added to a medium in the form of refined vesicles. The refined vesicles were prepared in the following manner. […] Among the vesicles obtained by this preparation method, 97.3% had diameters in a range of 20 to 40 nm. In general, for example, the average diameters of vesicles self-formed in a 2% aqueous solution of GDM12 and a 2% aqueous solution of GDS23 are both about 140 nm.

Nrf-2 = test: Expression of oxidative stress response gene Nrf-2, quantitative real-time PCR; format: cell-based, human; conditions: NHEM, GDS23 500, 1000, 2000 μM, 6 hours; mRNA corrected with GAPDH, control 100%; FIG. 1
Protocol: (§1) After samples were prepared using normal human epidermal melanocytes, RNA was extracted, and expression and amplification of genes of each of target substances (Nrf-2, PPARG, NQO-1, CAT, and HMOX1) were checked by real-time PCR. PPARG is the genetic code of the protein PPARγ and is one of oxidative stress response genes.
(§2) Sample 1 is a control (no GDS23 added). Samples 2 to 4 are different from one another in the amount of GDS23. • Sample 1: Control (N.C.) • Sample 2: GDS23 (500 μM) • Sample 3: GDS23 (1000 μM) • Sample 4: GDS23 (2000 μM)
(§3) Thereafter, RNA was extracted from the cultured cells for each sample. Reverse transcription of the extracted RNA was performed to generate cDNA, and the quantity of mRNA of each target substance was determined by quantitative real-time PCR expression analysis. GAPDH (glyceraldehyde-3-phosphate dehydrogenase) was used as an internal standard. In the analysis, the mRNA expression level of each target substance was corrected with a value of the expression level of GAPDH as the internal standard in the same sample, and thereafter the correction value for each sample was calculated, assuming the correction value for the control as 100%.

PPARG = test: Expression of oxidative stress response gene PPARG, quantitative real-time PCR; format: cell-based, human; conditions: NHEM, GDS23 500, 1000, 2000 μM, 6 hours; mRNA corrected with GAPDH, control 100%; FIG. 2
Protocol: as §1, §2, §3

NQO-1 = test: Expression of antioxidant enzyme NQO-1, quantitative real-time PCR; format: cell-based, human; conditions: NHEM, GDS23 500, 1000, 2000 μM, 6 hours; mRNA corrected with GAPDH, control 100%; FIG. 3
Protocol: as §1, §2, §3

CAT = test: Expression of antioxidant enzyme CAT, quantitative real-time PCR; format: cell-based, human; conditions: NHEM, GDS23 500, 1000 μM (Samples 1 to 3), 6 hours; mRNA corrected with GAPDH, control 100%; FIG. 4
Protocol: as §1, §2, §3

HMOX1 = test: Expression of antioxidant enzyme HMOX1, quantitative real-time PCR; format: cell-based, human; conditions: NHEM, GDS23 500, 1000, 2000 μM, 6 hours; mRNA corrected with GAPDH, control 100%; FIG. 5
Protocol: as §1, §2, §3

glutathione = test: Expression of antioxidant protein: total glutathione per protein quantity, glutathione reductase recycling method; format: cell-based, human; conditions: NHEM, GDS23 500 to 4000 μM, 24 hours; control 100%; FIG. 6
Protocol: After samples were prepared using normal human epidermal melanocytes, the quantity of glutathione as an antioxidant protein in cells was checked.
Sample 5 is a control (no GDS23 added). Samples 6 to 9 are different from one another in the amount of GDS23. • Sample 5: Control (N.C.) • Sample 6: GDS23 (500 μM) • Sample 7: GDS23 (1000 μM) • Sample 8: GDS23 (2000 μM) • Sample 9: GDS23 (4000 μM)
Thereafter, for each sample, the protein quantity in epidermal melanocytes and the quantity of total glutathione (GSH+GSSG) were determined by a glutathione reductase recycling method, using an assay kit (TaKaRa BCA Protein Assay Kit: from Takara Bio Inc.). The total quantity of glutathione per protein quantity was obtained from the protein quantity and the total quantity of glutathione determined for each sample, and then an increased ratio for each sample was calculated when an increased ratio for the control was assumed as 100%.

Substance | average diameters of vesicles (Diameter of vesicles) | expression level of Nrf-2 (Nrf-2) | expression level of PPARG (PPARG) | expression level of NQO-1 (NQO-1) | expression level of CAT (CAT) | expression level of HMOX1 (HMOX1) | total quantity of glutathione per protein quantity (glutathione)
PEG-12 glycerol dimyristate [GDM12] | about 140 nm |  |  |  |  |  | 
PEG-23 glycerol distearate [GDS23] | about 140 nm | enhances expression | enhances expression | enhancement of NQO-1 | enhancement of CAT | Enhancement of HMOX1 | promotes production of glutathione
